From ChEMBL document CHEMBL1201862, “PubChem BioAssay data set” (2004) come the findings set out here.

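Compound exposure: 48 hours, 5 concentrations, 96-well plates. GI50 is the concentration that inhibits growth by half.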 Activity calls are given as the source filed them. Rule as the data show it: active = GI50 up to about 1.1 µM and inactive = higher. Where only a bound is given, the exact number is not on record here.

Test systems include MOLT-4; CCRF-CEM; HCC 2998; SNB-19; MCF7; EKVX; MDA-MB-231; OVCAR-3; NCI-H226; DU-145; DMS-114; HCT-15; TK-10; A549; RPMI-8226; SK-MEL-28; SF-268; SF-295; NCI-H460; SR.
Common to all, as to test: inhibition of tumour cell growth, NCI panel, 48 h

Consider `CC1=CC(=O)c2ccc3c4ccccc4n(C)c3c2C1=O`, for which the GI50 in the test with MOLT-4 is 19.4 µM (inactive); in the test with CCRF-CEM, 20.8 µM (inactive); in the test on HCC 2998, > 96.4 µM (inactive); in the test with SNB-19 it was 39.1 µM (inactive); with MCF7, 12 µM (inactive); in the test with EKVX, > 19.8 µM (inactive). The GI50 is 70.6 µM (inactive) in the test with MDA-MB-231; 54.8 µM (inactive) in the test with OVCAR-3; > 94.4 µM (inactive) in the test with NCI-H226; 63.2 µM (inactive) in the test with DU-145; 27.7 µM (inactive) in the test on DMS-114; 25.5 µM with HCT-15. The GI50 in the test on TK-10 was > 100 µM (inactive); with A549 it was 48.2 µM (inactive); with RPMI-8226 it was > 41.2 µM (inactive); with SK-MEL-28, 60.7 µM (inactive); in the test on SF-268, > 70 µM (inactive); in the test with SF-295, > 54.5 µM (inactive). For the same compound, the GI50 in the test on NCI-H460 was 29.4 µM (inactive).

Consider `CCCCCCCCCCCCCCCCCCOCC(COCCOCC[N+]1(CCCCCC(=O)[O-])CCCC1)Oc1ncccn1` (stereo not drawn), for which the GI50 is 4.92 µM (inactive) in the test on MOLT-4; 2.59 µM (inactive) in the test with CCRF-CEM; 2.51 µM (inactive) in the test with HCC 2998; 2.17 µM (inactive) in the test on SNB-19; 3.18 µM (inactive) in the test with SR; 4.45 µM (inactive) in the test on MCF7. For the same compound, the GI50 in the test on EKVX is 14.6 µM (inactive); with MDA-MB-231, 8.22 µM (inactive); in the test on OVCAR-3, 5.2 µM (inactive); in the test with NCI-H226 it was 11.2 µM (inactive); in the test with DU-145, 13.3 µM (inactive); in the test on DMS-114, 1.21 µM (inactive). For the same compound, the GI50 is 12.8 µM with HCT-15; 4.06 µM (inactive) in the test on TK-10; 3.95 µM (inactive) with A549; 1.04 µM (active) in the test on RPMI-8226; 6.68 µM (inactive) in the test with SK-MEL-28; 3.51 µM (inactive) with SF-268. Also, the GI50 with SF-295 was 4.88 µM (inactive); in the test with NCI-H460 it was 2.36 µM (inactive).

Consider `CN(C)/N=N/c1cccc(C(N)=O)c1`, for which the GI50 in the test on MOLT-4, with CCRF-CEM, in the test on HCC 2998, with SNB-19, in the test with SR and in the test on EKVX was > 100 µM (inactive) in each case. The GI50 in the test with OVCAR-3 is > 100 µM (inactive); in the test on NCI-H226 it was > 100 µM (inactive); in the test on DMS-114, > 100 µM (inactive); in the test with HCT-15, more than 100 µM; in the test on TK-10, > 100 µM (inactive); in the test on A549, > 100 µM (inactive). The GI50 with RPMI-8226, with SK-MEL-28, with SF-268, in the test with SF-295 and in the test on NCI-H460 was > 100 µM (inactive) throughout.

`COC12C(COC(=O)NCCO)C3=C(C(=O)C(C)=C(N)C3=O)N1CC1NC12` (stereo not drawn): the GI50 in the test on MOLT-4 is 35.2 µM (inactive); with CCRF-CEM, 12.1 µM (inactive); in the test with HCC 2998, 34.8 µM (inactive); in the test on SNB-19, 16.4 µM (inactive); in the test on SR it was 35.2 µM (inactive); with MCF7, 16 µM (inactive). Moreover, the GI50 in the test with EKVX was > 264 µM (inactive); in the test on MDA-MB-231, 233 µM (inactive); in the test on OVCAR-3, 68.7 µM (inactive); in the test with NCI-H226, 16.9 µM (inactive); in the test on DU-145 it was 39.4 µM (inactive); in the test on DMS-114, 22.9 µM (inactive). The GI50 with HCT-15 is 170 µM; with TK-10, 83.2 µM (inactive); in the test on A549, 7.66 µM (inactive); in the test on RPMI-8226, 74.8 µM (inactive); with SK-MEL-28, > 100 µM (inactive); in the test with SF-268, 11.6 µM (inactive). Also, the GI50 with SF-295 was 6.62 µM (inactive); in the test with NCI-H460 it was 5.01 µM (inactive).

On to `CC1=CC(=C(c2ccc(N)c(C)c2)c2ccc(N)c(C)c2)C=CC1=N`, for which the GI50 with MOLT-4 was 3.65 µM (inactive); in the test on CCRF-CEM it was 2.86 µM (inactive); in the test with HCC 2998 it was 3.44 µM (inactive); in the test with SNB-19, 0.689 µM (active); in the test on SR, 2.99 µM (inactive); in the test on EKVX, 4.89 µM (inactive). For the same compound, the GI50 with OVCAR-3 was 4.49 µM (inactive); with NCI-H226 it was 3.93 µM (inactive); with DMS-114 it was 1.2 µM (inactive); with HCT-15, 12.8 µM; in the test on TK-10, 15.5 µM (inactive); in the test with A549, 3.6 µM (inactive). Also, the GI50 in the test on RPMI-8226 is 2.18 µM (inactive); with SK-MEL-28, 5.71 µM (inactive); in the test on SF-268 it was 0.499 µM (active); in the test on SF-295, 0.873 µM (active); in the test on NCI-H460 it was 3.61 µM (inactive).
